Source: patent US11578102B2, “LAG3 binding peptides” (Leidos, Inc., priority 2020, dated 2023)
Residues, ends and D or L forms follow the SMILES beside them.

target: T1, human LAG3/FGL1 interaction (Homo sapiens, UniProt P18627); experiment: Human LAG3/FGL1 TR-FRET Binding Assay (BPS Bioscience); details: peptides tested at 100, 33, and 11 μM; 1 hr at RT; read-out: IC50 in LAG3:FLG1 TR-FRET Assay
T1 construct: purchased BPS Bioscience
T1 sequence (P18627 23-450 limits assumed): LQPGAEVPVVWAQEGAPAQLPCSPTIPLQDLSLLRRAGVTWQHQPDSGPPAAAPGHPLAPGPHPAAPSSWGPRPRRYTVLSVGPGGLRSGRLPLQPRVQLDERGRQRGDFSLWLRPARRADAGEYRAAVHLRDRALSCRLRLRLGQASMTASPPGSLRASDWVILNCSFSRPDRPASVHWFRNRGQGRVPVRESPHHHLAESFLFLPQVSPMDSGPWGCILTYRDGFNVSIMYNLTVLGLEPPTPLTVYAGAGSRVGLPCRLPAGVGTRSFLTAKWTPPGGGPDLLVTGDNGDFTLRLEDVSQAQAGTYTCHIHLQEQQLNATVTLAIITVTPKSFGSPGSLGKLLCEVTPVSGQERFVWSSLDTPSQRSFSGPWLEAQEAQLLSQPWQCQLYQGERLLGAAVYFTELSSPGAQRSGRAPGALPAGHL
Description: This example tested the ability of peptides to inhibit the interaction between human LAG3 and FGL1. The peptides were tested using a Human LAG3/FGL1 TR-FRET Binding Assay (BPS Bioscience) carried out according to the manufacturer's instructions.
Peptides 6, 41, 68, 69, 115, 146, 154, and 155 were tested at 100, 33, and 11 μM. Peptide LG56 ([…]; SEQ ID NO:14) served as a peptide positive control. Peptide 93 (SEQ ID NO:15) served as a negative or low activating peptide control. A neutralizing anti-human LAG3 antibody (BPS Bioscience Cat. #71219) was used as an antibody positive control.
Reaction mixes were incubated 1 hr at RT before development. After development, plate was read in a Tecan M1000 TR-FRET instrument.

Row | IC50 [µM] | Compound
1 | > 100 | CC[C@H](C)[C@H](NC(=O)[C@H](C)NC(=O)CNC(=O)[C@H](C)NC(=O)[C@H](CC(N)=O)NC(=O)[C@@H]1CCCN1C(=O)[C@H](Cc1ccc(O)cc1)NC(=O)[C@H](CCC(N)=O)NC(=O)[C@H](CCCCN)NC(=O)[C@H](CCC(N)=O)NC(=O)[C@@H](NC(=O)[C@H](CCC(N)=O)NC(=O)[C@H](CCC(=O)O)NC(=O)[C@H](CCCCN)NC(=O)[C@@H](NC(=O)[C@@H]1CCCN1C(=O)[C@H](C)NC(=O)[C@@H]1CCCN1C(=O)[C@@H](NC(=O)[C@@H](N)CCCNC(=N)N)C(C)C)C(C)C)C(C)C)C(=O)O [Low Activity Peptide, reference compound] (H-RVPAPVKEQVQKQYPNAGAI-OH; N-terminus and C-terminus assumed)
2 | 7.2 | CC[C@H](C)[C@H](NC(=O)[C@H](CC(=O)O)NC(=O)[C@H](CC(=O)O)NC(=O)[C@H](C)NC(=O)[C@H](Cc1ccc(O)cc1)NC(=O)[C@H](CC(C)C)NC(=O)[C@H](CCCNC(=N)N)NC(=O)[C@@H](NC(=O)[C@H](CCC(=O)O)NC(=O)[C@H](CCCCN)NC(=O)[C@H](CCC(=O)O)NC(=O)[C@H](CC(=O)O)NC(=O)[C@H](Cc1c[nH]c2ccccc12)NC(=O)[C@H](CC(=O)O)NC(=O)[C@H](CCSC)NC(=O)[C@H](CCCNC(=N)N)NC(=O)[C@H](Cc1ccccc1)NC(=O)[C@@H](N)C(C)C)C(C)C)C(=O)N[C@@H](CC(C)C)C(=O)N[C@@H](CC(C)C)C(=O)O [Peptide 146] (H-VFRMDWDEKEVRLYADDILL-OH; N-terminus and C-terminus assumed)
3 | 7.2 | CSCC[C@H](NC(=O)[C@@H](NC(=O)[C@H](CCC(=O)O)NC(=O)[C@H](CC(C)C)NC(=O)[C@@H](NC(=O)[C@H](CCC(N)=O)NC(=O)[C@H](CCC(=O)O)NC(=O)[C@H](CCCNC(=N)N)NC(=O)[C@H](CC(N)=O)NC(=O)[C@H](Cc1c[nH]cn1)NC(=O)[C@@H](N)CCC(=O)O)C(C)C)C(C)C)C(=O)N[C@@H](Cc1ccc(O)cc1)C(=O)N[C@@H](CO)C(=O)N[C@@H](Cc1ccccc1)C(=O)N[C@@H](CCC(N)=O)C(=O)N[C@H](C(=O)N[C@@H](CC(N)=O)C(=O)N[C@@H](CC(=O)O)C(=O)N[C@@H](Cc1ccc(O)cc1)C(=O)N[C@@H](Cc1ccccc1)C(=O)O)C(C)C [Peptide 154] (H-EHNREQVLEVMYSFQVNDYF-OH; N-terminus and C-terminus assumed)
